From patent publication US20240270762A1, “PENICILLIN-BINDING PROTEIN INHIBITORS” (priority 2021, published 2024)
≈ marks a conversion by molar mass, not a printed value.

What was measured:
[1] = system: K. pneumoniae UMM; assay: microbe, parasite or virus in culture; assay type: cell-based; conditions: Klebsiella pneumoniae, read-out: MIC K. pneumoniae UMM
[2] = system: N. gonorrhoeae WHO Q; assay: Liquid broth MIC in Fastidious broth; conditions: Neisseria gonorrhoeae, read-out: Minimum Inhibitory Concentration (MIC), N. gonorrhoeae WHO Q
[3] = system: E. coli ATCC 25922; assay: microbe, parasite or virus in culture; assay type: cell-based; conditions: Escherichia coli, ATCC25922, read-out: MIC E. coli 25922
[4] = system: P. aeruginosa ATCC 27853; assay: microbe, parasite or virus in culture; assay type: cell-based; conditions: Pseudomonas aeruginosa, ATCC27853, read-out: MIC P. aeruginosa ATCC 27853
[5] = target: T1, PBP3 from Pseudomonas aeruginosa (PAO1) (Pseudomonas aeruginosa, UniProt G3XD46); assay: Bocillin-FL fluorescence polarization competition binding, P. aeruginosa PBP3; conditions: Binding affinity to P. aeruginosa PBP3; fluorescence polarization competition binding assay using Bocillin-FL; read-out: P. aeruginosa PBP3 Potency
T1 construct: made in house
T1 sequence (G3XD46 whole entry): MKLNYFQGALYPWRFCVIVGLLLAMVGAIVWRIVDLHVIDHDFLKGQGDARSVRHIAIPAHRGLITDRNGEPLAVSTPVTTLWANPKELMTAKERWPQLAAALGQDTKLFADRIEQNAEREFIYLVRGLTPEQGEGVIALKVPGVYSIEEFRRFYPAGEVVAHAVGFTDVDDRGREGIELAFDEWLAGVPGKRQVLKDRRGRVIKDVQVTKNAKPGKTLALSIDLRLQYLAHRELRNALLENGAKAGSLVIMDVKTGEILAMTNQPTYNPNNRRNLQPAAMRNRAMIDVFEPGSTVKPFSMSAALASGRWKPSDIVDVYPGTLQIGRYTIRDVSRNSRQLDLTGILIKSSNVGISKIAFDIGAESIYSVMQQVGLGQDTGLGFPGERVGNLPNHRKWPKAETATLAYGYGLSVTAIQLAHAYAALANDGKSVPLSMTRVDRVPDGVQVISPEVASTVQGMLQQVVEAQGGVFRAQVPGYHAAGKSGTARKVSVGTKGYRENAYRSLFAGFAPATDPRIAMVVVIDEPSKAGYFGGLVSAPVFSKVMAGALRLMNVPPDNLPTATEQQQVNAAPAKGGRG
Method in brief: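 Purified PBPs pre-incubated with inhibitor (E. coli PBP3 1.5 μM, 30 min; P. aeruginosa PBP3 0.75 μM, A. baumannii PBP1a 1 μM and PBP3 0.2 μM, 15 min), then Bocillin-FL 0.1 μM (0.05 μM for PBP1a) added; FP read up to 60 min. EC50 = concentration halving bound Bocillin-FL.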

[6] = system: N. gonorrhoeae MS11; assay: Liquid broth MIC in Fastidious broth; conditions: Neisseria gonorrhoeae, MS11, read-out: Minimum Inhibitory Concentration (MIC), N. gonorrhoeae MS11
[7] = system: N. gonorrhoeae WHO Z; assay: Liquid broth MIC in Fastidious broth; conditions: Neisseria gonorrhoeae, read-out: Minimum Inhibitory Concentration (MIC), N. gonorrhoeae WHO Z

| Compound | MIC [1] | MIC [2] | MIC [3] | MIC [4] | IC50 [5] | MIC [6] | MIC [7] |
| --- | --- | --- | --- | --- | --- | --- | --- |
| O=C(O)c1c(F)ccc2c1OB(O)[C@@H](NC(=O)C(NC(=O)N1CCN(Cc3ccc(O)c(O)c3Cl)C(=O)C1=O)c1ccc(P(=O)(O)O)cc1)C2 (stereo partly drawn) [Example 8, (3R)-3-(2-(4-(2-chloro-3,4-dihydroxybenzyl)-2,3-dioxopiperazine-1-carboxamido)-2-(4-phosphonophenyl)acetamido)-7-fluoro-2-hydroxy-3,4-dihydro-2H-benzo[e][1,2]oxaborinine-8-carboxylic acid] | 2 to 4 µg/mL (≈ 2.72 to 5.44 µM) | < 1 µg/mL | 2 to 4 µg/mL (≈ 2.72 to 5.44 µM) | < 1 µg/mL | < 10 µM | < 1 µg/mL | < 1 µg/mL |
| CS(=O)(=O)N1CCN(C(=O)NC(C(=O)N[C@H]2Cc3cccc(C(=O)O)c3OB2O)c2ccc(P(=O)(O)O)c(Cl)c2)C1=O (stereo partly drawn) [Example 11, (3R)-3-(2-(3-chloro-4-phosphonophenyl)-2-(3-(methylsulfonyl)-2-oxoimidazolidine-1-carboxamido)acetamido)-2-hydroxy-3,4-dihydro-2H-benzo[e][1,2]oxaborinine-8-carboxylic acid] | > 128 µg/mL | < 1 µg/mL | 32 to 64 µg/mL (≈ 49.6 to 99.3 µM) | > 128 µg/mL | < 10 µM | < 1 µg/mL | < 1 µg/mL |
| CS(=O)(=O)N1CCN(C(=O)NC(C(=O)N[C@H]2Cc3cccc(C(=O)O)c3OB2O)c2ccc(P(=O)(O)O)c(F)c2)C1=O (stereo partly drawn) [Example 12, (3R)-3-(2-(3-fluoro-4-phosphonophenyl)-2-(3-(methylsulfonyl)-2-oxoimidazolidine-1-carboxamido)acetamido)-2-hydroxy-3,4-dihydro-2H-benzo[e][1,2]oxaborinine-8-carboxylic acid] | > 128 µg/mL | < 1 µg/mL | 32 to 64 µg/mL (≈ 50.9 to 102 µM) | > 128 µg/mL | < 10 µM | < 1 µg/mL | < 1 µg/mL |
| NC(C(=O)N[C@H]1Cc2ccc(F)c(C(=O)O)c2OB1O)c1ccc(P(=O)(O)O)cc1 (stereo partly drawn) [Example 14, (3R)-3-(2-amino-2-(4-phosphonophenyl)acetamido)-7-fluoro-2-hydroxy-3,4-dihydro-2H-benzo[e][1,2]oxaborinine-8-carboxylic acid] | > 128 µg/mL | > 64 µg/mL | > 128 µg/mL | > 128 µg/mL | > 250 µM | > 64 µg/mL | > 64 µg/mL |
| CS(=O)(=O)N1CCN(C(=O)N[C@@H](C(=O)N[C@H]2Cc3ccc(F)c(C(=O)O)c3OB2O)c2ccc(P(=O)(O)O)c(F)c2F)C1=O [Example 16, (R)-3-((R)-2-(2,3-difluoro-4-phosphonophenyl)-2-(3-(methylsulfonyl)-2-oxoimidazolidine-1-carboxamido)acetamido)-7-fluoro-2-hydroxy-3,4-dihydro-2H-benzo[e][1,2]oxaborinine-8-carboxylic acid] | > 128 µg/mL | < 1 µg/mL | > 128 µg/mL | > 128 µg/mL | < 10 µM | < 1 µg/mL | < 1 µg/mL |
| CS(=O)(=O)N1CCN(C(=O)NC(C(=O)N[C@H]2Cc3cccc(C(=O)O)c3OB2O)c2ccc(P(=O)(O)O)c(O)c2)C1=O (stereo partly drawn) [Example 17, (3R)-2-hydroxy-3-(2-(3-hydroxy-4-phosphonophenyl)-2-(3-(methylsulfonyl)-2-oxoimidazolidine-1-carboxamido)acetamido)-3,4-dihydro-2H-benzo[e][1,2]oxaborinine-8-carboxylic acid] | 32 to 64 µg/mL (≈ 51.1 to 102 µM) | < 1 µg/mL | 32 to 64 µg/mL (≈ 51.1 to 102 µM) | 32 to 64 µg/mL (≈ 51.1 to 102 µM) | < 10 µM | < 1 µg/mL | < 1 µg/mL |
| CCN1CCN(C(=O)NC(C(=O)N[C@H]2Cc3cccc(C(=O)O)c3OB2O)c2ccc(CP(=O)(O)O)cc2)C(=O)C1=O (stereo partly drawn) [Example 20, (3R)-3-(2-(4-ethyl-2,3-dioxopiperazine-1-carboxamido)-2-(4-(phosphonomethyl)phenyl)acetamido)-2-hydroxy-3,4-dihydro-2H-benzo[e][1,2]oxaborinine-8-carboxylic acid] | 32 to 64 µg/mL (≈ 53.1 to 106 µM) | < 1 µg/mL | 8 to 16 µg/mL (≈ 13.3 to 26.6 µM) | > 128 µg/mL | < 10 µM | < 1 µg/mL | < 1 µg/mL |
| CCN1CCN(C(=O)NC(C(=O)N[C@H]2Cc3cccc(C(=O)O)c3OB2O)c2ccc(P(=O)(O)O)c(O)c2)C(=O)C1=O (stereo partly drawn) [Example 21, (3R)-3-(2-(4-ethyl-2,3-dioxopiperazine-1-carboxamido)-2-(3-hydroxy-4-phosphonophenyl)acetamido)-2-hydroxy-3,4-dihydro-2H-benzo[e][1,2]oxaborinine-8-carboxylic acid] | 8 to 16 µg/mL (≈ 13.2 to 26.5 µM) | < 1 µg/mL | 8 to 16 µg/mL (≈ 13.2 to 26.5 µM) | 8 to 16 µg/mL (≈ 13.2 to 26.5 µM) | < 10 µM | < 1 µg/mL | < 1 µg/mL |
| CCN1CCN(C(=O)NC(C(=O)N[C@H]2Cc3cccc(C(=O)O)c3OB2O)c2cccc(CP(=O)(O)O)c2)C(=O)C1=O (stereo partly drawn) [Example 22, (3R)-3-(2-(4-ethyl-2,3-dioxopiperazine-1-carboxamido)-2-(3-(phosphonomethyl)phenyl)acetamido)-2-hydroxy-3,4-dihydro-2H-benzo[e][1,2]oxaborinine-8-carboxylic acid] | 32 to 64 µg/mL (≈ 53.1 to 106 µM) | 1 to 2 µg/mL (≈ 1.66 to 3.32 µM) | 32 to 64 µg/mL (≈ 53.1 to 106 µM) | > 128 µg/mL | < 10 µM | 1 to 2 µg/mL (≈ 1.66 to 3.32 µM) | 1 to 2 µg/mL (≈ 1.66 to 3.32 µM) |
| CCN1CCN(C(=O)NC(C(=O)N[C@H]2Cc3cccc(C(=O)O)c3OB2O)c2c(F)cc(P(=O)(O)O)cc2F)C(=O)C1=O (stereo partly drawn) [Example 25, (3R)-3-(2-(2,6-difluoro-4-phosphonophenyl)-2-(4-ethyl-2,3-dioxopiperazine-1-carboxamido)acetamido)-2-hydroxy-3,4-dihydro-2H-benzo[e][1,2]oxaborinine-8-carboxylic acid] | 32 to 64 µg/mL (≈ 51.3 to 103 µM) | 1 to 2 µg/mL (≈ 1.6 to 3.2 µM) | > 128 µg/mL | > 128 µg/mL | < 10 µM | < 1 µg/mL | < 1 µg/mL |
